In ChEMBL document CHEMBL1201862, “PubChem BioAssay data set” (2004):
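The compound was tested at five concentrations on cells cultured in 96-well plates, with a 48-hour exposure period. GI50 marks 50% less growth.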 The source made the active and inactive calls. Cut-off read from the data, not from the text of the source: active = GI50 up to about 1.1 µM and inactive = higher.

Experiments:
Assay in all cases: DTP human tumour cell line panel, 48 h
HT-29 = test system: HT-29
LOX IMVI = test system: LOX IMVI
Hs-578T = test system: Hs-578T
SF-295 = test system: SF-295
UACC-257 = test system: UACC-257
MDA-N = test system: MDA-N
ACHN = test system: ACHN
SK-MEL-5 = test system: SK-MEL-5
DU-145 = test system: DU-145
OVCAR-5 = test system: OVCAR-5
NCI-H226 = test system: NCI-H226
A549 = test system: A549
NCI-H23 = test system: NCI-H23
SK-MEL-2 = test system: SK-MEL-2
SW-620 = test system: SW-620
TK-10 = test system: TK-10
CCRF-CEM = test system: CCRF-CEM
KM12 = test system: KM12
HL-60 = test system: HL-60

Measured: GI50

COC(=O)/C=C/CC(=O)NS(C)(=O)=O
inactive: HT-29 > 10 µM | LOX IMVI > 10 µM | Hs-578T > 10 µM | SF-295 > 10 µM | UACC-257 > 10 µM | MDA-N > 10 µM | ACHN > 10 µM | SK-MEL-5 > 10 µM | DU-145 > 10 µM | OVCAR-5 > 10 µM | NCI-H226 > 10 µM | A549 > 10 µM | NCI-H23 > 10 µM | SK-MEL-2 > 10 µM | SW-620 > 10 µM | TK-10 > 10 µM | CCRF-CEM > 10 µM | KM12 > 10 µM | HL-60 > 10 µM

Clc1ccc2oc(CCc3ccccc3)nc2c1
inactive: HT-29 33.4 µM | LOX IMVI > 100 µM | Hs-578T > 100 µM | SF-295 33.6 µM | UACC-257 42.4 µM | MDA-N 50.1 µM | ACHN 47.2 µM | SK-MEL-5 20.3 µM | DU-145 48.1 µM | OVCAR-5 83.2 µM | NCI-H226 32.6 µM | A549 36.6 µM | NCI-H23 45.8 µM | SK-MEL-2 30.6 µM | SW-620 49.4 µM | TK-10 69.7 µM | CCRF-CEM 29.8 µM | KM12 37.3 µM | HL-60 34.7 µM

O=C1c2c(Br)sc(Br)c2[C@@H](O)[C@H]1O
inactive: HT-29 19.1 µM | LOX IMVI 7.13 µM | Hs-578T 23.1 µM | SF-295 18.1 µM | UACC-257 15.1 µM | MDA-N 16.3 µM | ACHN 18 µM | SK-MEL-5 18.4 µM | DU-145 16.4 µM | OVCAR-5 19.9 µM | NCI-H226 17.6 µM | A549 20.9 µM | NCI-H23 7.21 µM | SK-MEL-2 17.1 µM | SW-620 3.28 µM | TK-10 53.7 µM | CCRF-CEM 2.32 µM | KM12 21.2 µM | HL-60 9.14 µM

O=C(O)CCNc1[nH]cnc2ncnc1-2
inactive: HT-29 > 100 µM | LOX IMVI > 100 µM | Hs-578T > 100 µM | SF-295 > 100 µM | UACC-257 > 100 µM | MDA-N > 100 µM | ACHN > 100 µM | SK-MEL-5 > 100 µM | DU-145 > 100 µM | OVCAR-5 > 100 µM | NCI-H226 > 100 µM | A549 > 100 µM | NCI-H23 > 100 µM | SK-MEL-2 > 100 µM | SW-620 > 100 µM | TK-10 > 100 µM | CCRF-CEM > 100 µM | KM12 > 100 µM | HL-60 > 100 µM
